According to patent US20210130291A1, “METHODS FOR TREATING DIABETES USING VDAC1 INHIBITORS” (THE NATIONAL INSTITUTE FOR BIOTECHNOLOGY IN THE NEGEV LTD., priority 2016, published 2021):
“Also recorded” adds a separate entry of the source.

Columns and labels:
[1] = tested on: VDAC1 expression in INS-1 cells; assay: VDAC1 expression in INS-1 cells cultured at 5 or 20 mM glucose; assay type: cell-based, rat; settings: INS-1 cells cultured 72 h at 20 mM glucose; VDAC1ab 10 nM, metformin, AKOS, VBIT-4 20 μM each (FIG. 4l, 4m)
Description: INS-1 832/13 cells (kindly donated by Dr. C. B. Newgaard, Duke University, USA) were cultured in RPMI-1640 containing 11.1 mM D-glucose and supplemented with 10% fetal bovine serum, 100 U/ml penicillin (Gibco), 100 µg/ml streptomycin (Gibco), 10 mM HEPES, 2 mM glutamine, 1 mM sodium pyruvate, and 50 µM β-mercaptoethanol (Sigma), at 37° C. in a humidified atmosphere containing 95% air and 5% CO2. For VDAC1 over-expression by VDAC1 plasmid (1 μg/ml) and VDAC2 down-regulation by and siRNA, INS1 832/13 cells were cultured to 60% confluence. To study the long-term effects (24-72 h) of high glucose (20 mM) (glucotoxicity) compared to basal glucose (5 mM), INS-1 832/13 cells were cultured with RPMI 1640 complete media (Ahmed, M., et al., 2010. Islets 2, 283-292) in the presence or absence of indicated agents and thereafter VDAC1 expression, cell viability and function was measured.
Total RNA from handpicked mouse islets, human donor islets (Diabetic and non-diabetic) or INS1 832/13 cells were extracted using RNAeasy (Qiagen, Hilden, Germany). RNA ([…]) was used for cDNA synthesis with SuperScript (Invitrogen, Carlsbad, Calif., USA). Concentration and purity of total RNA was measured with a NanoDrop ND-1000 spectrophotometer (A260/A280>1.9 and A260/A230>1.4) (NanoDrop Technologies, Wilmington, Del.) and RNA Quality Indicator (RQI) higher than 8.0 (Experion Automated Electrophoresis, Bio-Rad, USA) was considered to be high-quality total RNA preparations. A 10 μl of reaction mixture with 20 ng cDNA, 5 μl TaqMan mastermix (Applied Biosystems, Foster City, Calif., USA), and 100 nM TagMan gene expression assay were run in a 7900HT Fast Real-Time System (Applied Biosystems). The qPCR was carried out as follows: 50° C. for 2 minutes, 95° C. for 10 minutes, 40 cycles of 95° C. for 15 seconds, and 60° C. for 1 minute. The amount of mRNA was calculated relative to the amount of housekeeping genes (GAPDH, PPIA or HPRT) mRNA in the same sample by the formula X0/R0=2CtR-CtX, where X0 is the original amount of mRNA for the gene of interest, R0 is the original amount of HPRT mRNA, CtR the Ct value for HPRT, and CtX the Ct value for the gene of interest. Primer sequences are provided upon request.

[2] = target: T1, plasma membrane targeted VDAC1 (plVDAC1) (Mus musculus, UniProt Q60932); assay: ATP release and ATP content of INS-1 cells transfected with plasma membrane targeted VDAC1; assay type: cell-based; settings: plVDAC1-transfected INS-1 cells, 1 h at 1 mM glucose; for ATP release (loss of cellular ATP): VDAC1-ab 10 nM, metformin, AKOS, VBIT-4 20 μM each (FIG. 4c)
T1 construct: expressed in transfected cells; host or cells: INS-1 832/13 cells (rat insulinoma), transient transfection; plasmid a gift from Dr. R. Buettner
T1 sequence (Q60932 whole entry): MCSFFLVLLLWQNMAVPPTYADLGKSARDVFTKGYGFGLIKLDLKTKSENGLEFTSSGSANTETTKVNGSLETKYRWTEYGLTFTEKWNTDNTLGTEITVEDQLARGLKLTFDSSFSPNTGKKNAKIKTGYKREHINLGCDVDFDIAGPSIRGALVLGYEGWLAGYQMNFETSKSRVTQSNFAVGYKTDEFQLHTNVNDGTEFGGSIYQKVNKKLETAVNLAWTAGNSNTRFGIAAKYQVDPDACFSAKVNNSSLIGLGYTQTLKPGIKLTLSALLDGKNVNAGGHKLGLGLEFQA
Description: (§1) ATP release from isolated mouse or human islets or from INS-1 cells after transfection with mitochondrial targeted VDAC1 (mtVDAC1) or plasma membrane targeted VDAC1 (plVDAC1) plasmids was determined using a luminometric assay kit according to manufacturer's recommendation (Biovision). After incubation of islets (50/vial) or INS-1 cells for 60 min, an aliquot of the media was removed for subsequent measurements of released ATP. Then the islets or INS-1 cells were washed 3 times and the lysates were used for measurements of ATP and protein contents followed the protocol provided by the vendor.
INS-1 cells were transiently transfected with a plasmid encoding plasma membrane targeted VDAC1 (pVDAC1) as described in the Material and Method section herein above and in Example 3 (see also Buettner et al 2000. PNAS 97:3201-3206). After transfection (24-32 h and 2-4 h recovery in normal culture medium, RPMI 1640 with complete supplement) the INS-1 cells were washed followed by preincubation in SAB-buffer (See Material and Method above) containing 2.8 mM glucose. The final 1 h incubation was performed in SAB-buffer containing 1 mM glucose and the VDAC1 inhibitory compounds to be tested. At the end, the cells were lysed using lysis buffer, sonicated and the lysate as well as the incubation medium were analyzed for ATP content using a commercially available kit (Biovision, K354-100). Cellular protein content was analyzed by Pierce™ BCA protein assay kit (Thermo Scientific, USA).

islets from T2D donors = assay: ATP content and GSIS in islets from T2D donors, acute addition of VDAC1 inhibitors; assay type: cell-based, human; settings: for GSIS: T2D islets, acute addition 1 h (FIG. 6f); for islet ATP content: islets from 5 T2D donors and one IGT donor, 1 h, at 1 and 16.7 mM glucose (FIG. 6e)
Text: Human pancreatic islets were obtained through collaboration between Human Tissue Laboratory within Lund University Diabetes Centre (LUDC) and the Nordic Network for Clinical Islet Transplantation (Prof. Olle Korsgren, Uppsala University, Sweden). Donors were grouped according to HbA1c i.e. less than 6% (ND), between 6% and 6.5% (IGT), higher than 6.5% or history of diabetes (T2D). The human islets (70-90% purity) had been cultured in CMRL 1066 (ICN Biomedicals, Costa Mesa, Calif.) supplemented with 10 mM HEPES, 2 mM L-glutamine, […] gentamicin, […] fungizone (Gibco, BRL, Gaithersburg, Md.), 20 μg/ml ciprofloxacin (Bayer Healthcare, Leverkusen, Germany) and 10 mM nicotinamide at 37° C. (5% CO2) for 1 to 5 days prior to the arrival in the laboratory. The islets were then hand-picked under stereomicroscope prior to use. All procedures using human islets were approved by the ethical committees at Uppsala and Lund Universities, Sweden.
Human pancreatic islets were collected under a stereomicroscope at room temperature and cultured at 5.5 or 20 mM glucose in the absence or presence of test agents for 72 h. Thereafter the islets were washed and preincubated for 30 min at 37° C. in Krebs Ringer bicarbonate buffer, pH 7.4, supplemented with N-2 hydroxyethylpiperazine-N′-2-ethanesulfonic acid (10 mM), 0.1% bovine serum albumin, and 1 mM glucose. Each incubation vial contained 12 islets in 1.0 ml KRB buffer solution and treated with 95% O2 and 5% CO2 to obtain constant pH and oxygenation. After preincubation, the buffer was changed to a medium containing either 1 mM or 16.7 mM glucose. The islets were then incubated for 1 h at 37° C. in a metabolic shaker (30 cycles per min). Immediately after incubation an aliquot of the medium was removed for analysis of insulin and the islets were incubated in acid-ethanol for insulin content determination by radioimmunoassay.
as §1

| Structure (SMILES) | glucose evoked VDAC1 upregulation (total VDAC1 expression) [1] | ATP release ([2]; racemate and enantiomers (FIG. 9a), listed as racemic VBIT-4) | cellular ATP content ([2]; racemate and enantiomers (FIG. 9b), listed as racemic VBIT-4) | ATP release (loss of cellular ATP) [2] | GSIS (islets from T2D donors) | islet ATP content (islets from T2D donors) |
| --- | --- | --- | --- | --- | --- | --- |
| O=C(CC(CO)N1CCN(c2ccc(OC(F)(F)F)cc2)CC1)Nc1ccc(Cl)cc1 (racemic) [VBIT-4, N-(4-chlorophenyl)-4-hydroxy-3-(4-(4-(trifluoromethoxy)phenyl)-piperazin-1-yl)butanamide] | abrogated the glucose evoked VDAC1 upregulation | efficiently inhibit ATP release; also recorded: no discernible difference | increase cellular ATP content; also recorded: intermediate between that of its enantiomers 1 and 2 | prevented; also recorded: rapidly inhibited | increased in parallel with the improved ATP generation | increased islet ATP content |
| CN(C)C(=N)N=C(N)N [metformin] | abrogated the glucose evoked VDAC1 upregulation | – | – | prevented; also recorded: rapidly inhibited | increased in parallel with the improved ATP generation | increased islet ATP content |
